SMILES strings stand for the structures.

The nature of the data set: In vitro elution of pharmaceutical agents from particles (Sotax USP 4 dissolution apparatus, HPLC). It counts as physicochemical. As to the method:
For in vitro elution testing, drug was loaded on 1 mL samples of microspheres of approximately 400±100 micron diameter. Microsphere aliquots were loaded with 37.5 mg of doxorubicin in water or 50 mg of irinotecan in citrate buffer. Samples were incubated for 18 hours. Drug was eluted from the samples in a Sotax USP 4 dissolution apparatus. Samples were taken at incremental time intervals and analyzed by high performance liquid chromatography. Peak area was recorded (FIG. 4). Percent and concentration of drug eluted were calculated for each time interval.

The mark [1] stands for this setting: 1 mL microsphere sample (approximately 400±100 micron diameter) loaded with 50 mg irinotecan in citrate buffer.
[2] abbreviates: 1 mL microsphere sample (approximately 400±100 micron diameter) loaded with 37.5 mg doxorubicin in water.

For the compound `CCc1c2c(nc3ccc(OC(=O)N4CCC(N5CCCCC5)CC4)cc13)-c1cc3c(c(=O)n1C2)COC(=O)[C@]3(O)CC` [irinotecan], under setting [1], the “amount of drug eluted over the first day” value is “over 45 mg” and the “percent of drug eluted over the first day” value was 95%.
As to `COc1cccc2c1C(=O)c1c(O)c3c(c(O)c1C2=O)C[C@@](O)(C(=O)CO)C[C@@H]3O[C@H]1C[C@H](N)[C@H](O)[C@H](C)O1` [doxorubicin], under setting [2], the “amount of drug eluted over the first day” value came to 24.5 mg and the “percent of drug eluted over the first day” value was determined as 65%.

For the origin of these results see patent US12364786B2, “Polymer particles” (Terumo Corporation, priority 2016, dated 2025).
